Data reported in PubChem BioAssay (NCI).
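Five compound concentrations were applied to cells in 96-well plates for 48 hours; endpoints were derived by simple linear interpolation of the resulting dose-response curve. GI50 marks 50% less growth. TGI: total growth inhibition.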

How the values were obtained:
Assay in all cases: DTP human tumour cell line panel, 48 h
EKVX NSCLC = tested on: EKVX NSCLC
MDA-MB-435 = tested on: MDA-MB-435
CCRF-CEM leukemia = tested on: CCRF-CEM leukemia
OVCAR-3 ovarian = tested on: OVCAR-3 ovarian
COLO 205 colon = tested on: COLO 205 colon
K-562 leukemia = tested on: K-562 leukemia
SW-620 colon = tested on: SW-620 colon
NCI-H460 lung = tested on: NCI-H460 lung
OVCAR-8 ovarian = tested on: OVCAR-8 ovarian
IGROV1 ovarian = tested on: IGROV1 ovarian
SN12C renal = tested on: SN12C renal
LOX IMVI melanoma = tested on: LOX IMVI melanoma
PC-3 prostate = tested on: PC-3 prostate
TK-10 renal = tested on: TK-10 renal
HCT-15 colon = tested on: HCT-15 colon
SK-OV-3 ovarian = tested on: SK-OV-3 ovarian
786-0 renal = tested on: 786-0 renal
SF-295 CNS = tested on: SF-295 CNS
KM12 colon = tested on: KM12 colon
SK-MEL-5 melanoma = tested on: SK-MEL-5 melanoma
BT-549 breast = tested on: BT-549 breast
SF-268 CNS = tested on: SF-268 CNS
NCI-H23 lung = tested on: NCI-H23 lung
SF-539 CNS = tested on: SF-539 CNS
CAKI-1 renal = tested on: CAKI-1 renal
MCF7 breast = tested on: MCF7 breast
HCT-116 colon = tested on: HCT-116 colon
DU-145 prostate = tested on: DU-145 prostate
HS 578T breast = tested on: HS 578T breast
MOLT-4 leukemia = tested on: MOLT-4 leukemia
A549 NSCLC = tested on: A549 NSCLC
HOP-92 NSCLC = tested on: HOP-92 NSCLC
HCC-2998 colon = tested on: HCC-2998 colon
HL-60(TB) leukemia = tested on: HL-60(TB) leukemia
RPMI-8226 leukemia = tested on: RPMI-8226 leukemia
NCI-H226 lung = tested on: NCI-H226 lung
UACC-257 melanoma = tested on: UACC-257 melanoma
UO-31 renal = tested on: UO-31 renal
SR leukemia = tested on: SR leukemia
MDA-MB-231 breast = tested on: MDA-MB-231 breast
U251 CNS = tested on: U251 CNS
M14 melanoma = tested on: M14 melanoma
UACC-62 melanoma = tested on: UACC-62 melanoma
SK-MEL-2 melanoma = tested on: SK-MEL-2 melanoma
HT29 colon = tested on: HT29 colon
SK-MEL-28 melanoma = tested on: SK-MEL-28 melanoma
OVCAR-5 ovarian = tested on: OVCAR-5 ovarian
OVCAR-4 ovarian = tested on: OVCAR-4 ovarian
NCI-H522 lung = tested on: NCI-H522 lung
NCI/ADR-RES ovarian = tested on: NCI/ADR-RES ovarian
RXF 393 renal = tested on: RXF 393 renal
A498 renal = tested on: A498 renal
ACHN renal = tested on: ACHN renal

c1ccc2c(c1)nc1n2sc2nc3ccccc3n21
TGI (EKVX NSCLC): > 100 µM
TGI (MDA-MB-435): > 100 µM
TGI (CCRF-CEM leukemia): > 100 µM
TGI (OVCAR-3 ovarian): > 100 µM
TGI (COLO 205 colon): > 100 µM
TGI (K-562 leukemia): > 100 µM
TGI (SW-620 colon): > 100 µM
TGI (NCI-H460 lung): > 100 µM
TGI (OVCAR-8 ovarian): > 100 µM
TGI (IGROV1 ovarian): > 100 µM
TGI (SN12C renal): > 100 µM
TGI (LOX IMVI melanoma): > 100 µM
TGI (PC-3 prostate): > 100 µM
TGI (TK-10 renal): > 100 µM
TGI (HCT-15 colon): > 100 µM
TGI (SK-OV-3 ovarian): > 100 µM
TGI (786-0 renal): > 100 µM
TGI (SF-295 CNS): > 100 µM
TGI (KM12 colon): > 100 µM
TGI (SK-MEL-5 melanoma): > 100 µM
TGI (BT-549 breast): > 100 µM
TGI (SF-268 CNS): > 100 µM
TGI (NCI-H23 lung): > 100 µM
TGI (SF-539 CNS): > 100 µM
TGI (CAKI-1 renal): > 100 µM
TGI (MCF7 breast): > 100 µM
TGI (HCT-116 colon): > 100 µM
TGI (DU-145 prostate): > 100 µM
TGI (HS 578T breast): > 100 µM
TGI (MOLT-4 leukemia): > 100 µM
TGI (A549 NSCLC): > 100 µM
TGI (HOP-92 NSCLC): > 100 µM
TGI (HCC-2998 colon): > 100 µM
TGI (HL-60(TB) leukemia): > 100 µM
TGI (RPMI-8226 leukemia): > 100 µM
TGI (NCI-H226 lung): > 100 µM
TGI (UACC-257 melanoma): > 100 µM
TGI (UO-31 renal): > 100 µM
TGI (SR leukemia): > 100 µM
TGI (MDA-MB-231 breast): > 100 µM
TGI (U251 CNS): > 100 µM
TGI (M14 melanoma): > 100 µM
TGI (UACC-62 melanoma): 79 µM
TGI (SK-MEL-2 melanoma): > 100 µM
TGI (HT29 colon): > 100 µM
TGI (SK-MEL-28 melanoma): > 100 µM
TGI (OVCAR-5 ovarian): > 100 µM
TGI (OVCAR-4 ovarian): > 100 µM
TGI (NCI-H522 lung): > 100 µM
TGI (NCI/ADR-RES ovarian): > 100 µM

C(#Cc1cnccn1)/C=C\C#Cc1cnccn1
GI50 (EKVX NSCLC): 3.69 µM
TGI (EKVX NSCLC): 16 µM
GI50 (MDA-MB-435): 7.72 µM
TGI (MDA-MB-435): 33.1 µM
GI50 (CCRF-CEM leukemia): 2.67 µM
TGI (CCRF-CEM leukemia): > 100 µM
GI50 (OVCAR-3 ovarian): 7.14 µM
TGI (OVCAR-3 ovarian): 28.4 µM
GI50 (RXF 393 renal): 13 µM
TGI (RXF 393 renal): 38.6 µM
GI50 (K-562 leukemia): 4.18 µM
TGI (K-562 leukemia): > 100 µM
GI50 (SW-620 colon): 2.87 µM
TGI (SW-620 colon): 6.88 µM
GI50 (NCI-H460 lung): 19.4 µM
TGI (NCI-H460 lung): > 100 µM
GI50 (OVCAR-8 ovarian): 12.5 µM
TGI (OVCAR-8 ovarian): > 100 µM
GI50 (IGROV1 ovarian): 33.1 µM
TGI (IGROV1 ovarian): > 100 µM
GI50 (SN12C renal): 13.6 µM
TGI (SN12C renal): 29.9 µM
GI50 (LOX IMVI melanoma): 1.65 µM
TGI (LOX IMVI melanoma): 10.5 µM
GI50 (PC-3 prostate): 29.7 µM
TGI (PC-3 prostate): 97.3 µM
GI50 (HCT-15 colon): 2.74 µM
TGI (HCT-15 colon): 10.6 µM
GI50 (786-0 renal): 10.7 µM
TGI (786-0 renal): 29 µM
GI50 (SF-295 CNS): 15 µM
TGI (SF-295 CNS): 32.1 µM
GI50 (KM12 colon): 3.43 µM
TGI (KM12 colon): 22.4 µM
GI50 (SK-MEL-5 melanoma): 19.8 µM
TGI (SK-MEL-5 melanoma): 39.9 µM
GI50 (BT-549 breast): 12 µM
TGI (BT-549 breast): 37.4 µM
GI50 (SF-268 CNS): 22.8 µM
TGI (SF-268 CNS): > 100 µM
GI50 (NCI-H23 lung): 1.65 µM
TGI (NCI-H23 lung): 3.79 µM
GI50 (SF-539 CNS): 15.4 µM
TGI (SF-539 CNS): 46.1 µM
GI50 (CAKI-1 renal): 2.14 µM
TGI (CAKI-1 renal): 6.92 µM
GI50 (MCF7 breast): 14.1 µM
TGI (MCF7 breast): > 100 µM
GI50 (DU-145 prostate): 19.2 µM
TGI (DU-145 prostate): 72 µM
GI50 (HS 578T breast): 31.6 µM
TGI (HS 578T breast): > 100 µM
GI50 (MOLT-4 leukemia): 11.4 µM
TGI (MOLT-4 leukemia): > 100 µM
GI50 (A549 NSCLC): 15.6 µM
TGI (A549 NSCLC): 42.2 µM
GI50 (HOP-92 NSCLC): 31.1 µM
TGI (HOP-92 NSCLC): 83.9 µM
GI50 (HCC-2998 colon): 3.63 µM
TGI (HCC-2998 colon): 11.5 µM
GI50 (HL-60(TB) leukemia): 24.1 µM
TGI (HL-60(TB) leukemia): > 100 µM
GI50 (RPMI-8226 leukemia): 8.49 µM
TGI (RPMI-8226 leukemia): 43.8 µM
GI50 (A498 renal): 27.8 µM
TGI (A498 renal): 50.7 µM
GI50 (NCI-H226 lung): 23.3 µM
TGI (NCI-H226 lung): 68.1 µM
GI50 (UACC-257 melanoma): 7.43 µM
TGI (UACC-257 melanoma): 27.1 µM
GI50 (UO-31 renal): 36 µM
TGI (UO-31 renal): > 100 µM
GI50 (SR leukemia): 3.54 µM
TGI (SR leukemia): > 100 µM
GI50 (MDA-MB-231 breast): 4.4 µM
TGI (MDA-MB-231 breast): 20.7 µM
GI50 (M14 melanoma): 1.72 µM
TGI (M14 melanoma): 3.86 µM
GI50 (UACC-62 melanoma): 10.4 µM
TGI (UACC-62 melanoma): 22.3 µM
GI50 (SK-MEL-2 melanoma): 41.8 µM
TGI (SK-MEL-2 melanoma): > 100 µM
GI50 (OVCAR-5 ovarian): 16.4 µM
TGI (OVCAR-5 ovarian): 31.7 µM
GI50 (ACHN renal): 16 µM
TGI (ACHN renal): 40 µM
GI50 (NCI-H522 lung): 2.4 µM
TGI (NCI-H522 lung): 18.1 µM
GI50 (NCI/ADR-RES ovarian): 7.46 µM
TGI (NCI/ADR-RES ovarian): 44.3 µM
